From patent publication US20220160812A1, “A PHARMACEUTICALLY ACTIVE SUBSTANCE” (Cytopharma GmbH, priority 2019, published 2022) come the findings set out here.

The test system of this experiment is BxPC-3 human pancreatic cancer cells. In words: subG1 cell cycle FACS apoptosis assay, BxPC-3 cells. Format: cell-based. The settings on record: BxPC-3, Protocol A, about 24 hours, FIG. 10. As for the experimental part: To transfer adherent cells (A375 and BxPC-3 cells) after culture, cells are washed twice with PBS. To detach the cells, the enzyme biotase is used according to the manufacturer's instructions. For this purpose, after washing with PBS, the cells are mixed with biotase (5 ml of biotase solution per 75 cm^2 surface of the cell culture bottles) and incubated for 5 min at 37 degrees Celsius, and the biotase is separated by centrifugation. Cells cultivated in suspension (MEC-1 and lymphocytes) were transferred by dilution. The cells are suspended in culture medium and counted, each time 1.5×10^5 cells/cm^2 are seeded in 48-well plates and cultured for between 1.5 and 24 hours at 37 degrees Celsius, 5% CO2. Peptides are pre-diluted from stock solution with culture medium and 200 μl of peptide solution added so that final concentrations of 30 to 500 μM peptide are present in at most 1% (v/v) DMSO. As control solutions, culture medium without peptide (DMSO-containing) in culture medium or etoposide solution is added. After incubating the cells for several hours, the cell supernatant is transferred to a FACS tube for each batch and, after washing the cells with PBS, the wash solution is added. Then the cells are incubated with 200 μl of biotase solution for 10 min, 37° C., the cells with the biotase are also transferred to the FACS tube and the cells are collected by centrifugation for 5 min. The cell pellet is suspended in 500 μl of serum-free culture medium, then 1.5 ml of cold 80% ethanol (ethanol/PBS-80/20, v/v, stored at −20° C.) is added, the FACS tubes sealed and stored at −20 degrees Celsius for 15 to 18 h. Thereafter, the cells are centrifuged for 5 minutes at 120 g, suspended after removal of the supernatant in 2 ml PBS and incubated at 37 degrees Celsius for 30 minutes. After re-centrifugation, the cells are suspended in 0.5 ml DAPI solution and incubated for 15 min at 20 degrees Celsius in the dark. Thereafter, the cells are stored dark for a maximum of four hours in an ice bath, followed by the FACS analysis.
The adherent cells (A375 and BxPC-3 cells and MDA-MB-231, respectively) are seeded 24 hours before induction in 6-well plates in culture medium. For this, the cells are washed with PBS, then incubated with trypsin/EDTA solution at 37 degrees Celsius and suspended in culture medium. The 6-well plates are loaded with 1×10^5 cells/cm^2 in culture medium and the cells incubated for 24 hours until induction with the peptides in the incubator. For induction, the peptides are diluted in fresh culture medium. As control solutions, culture medium without peptide (DMSO-containing) in culture medium or etoposide solution is added. The cells are washed with PBS. Thereafter the peptide solution in culture medium is added to the cells. After incubation in the incubator (37° C., 5% CO2) between 1.5 and 24 hours, the cell supernatant is transferred to 15 ml centrifuge tubes, the cells are washed with 0.75 ml PBS and then with 0.5 ml versene solution. Both washings are combined with the cell supernatant. The cells are then added with 0.5 ml of trypsin/EDTA solution and incubated at about 37° C. for at most 10 minutes until the cells detached. The cell suspension is combined with cell supernatant and washings and centrifuged at about 130 g for about 10 minutes. After removing the supernatant, the cells are suspended in 400 μl of cell culture medium (without serum) and mixed with 1.2 ml of 80% ethanol/20% PBS (v/v) and incubated for 1 to 7 days at −20° C. For analysis, the cells are centrifuged at 130 g for 10 min, suspended in 2 ml PBS, and centrifuged again for 5 min. The cells are suspended in 700 μl PI buffer and incubated for 10 min at 37° C. in the dark. Subsequently, the cells are stored dark for a maximum of four hours in an ice bath, then the FACS analysis is performed. […]

On to “k-s-q-t-v-q-k-w-m-v-v-y-f-r-k [SEQID No 36]”, for which the “apoptosis efficiency (subG1), comparison in words” value (“apoptosis efficiency … in words” for short) reads like this: (50 μM) “slight improvement over peptides SEQID NO 27 and SEQID NO 37”; (200 μM) “clear improvement over peptides SEQID NO 27 and SEQID NO 29”. Further, under “any concentration (50, 100, 200 μM)”, the “apoptosis efficiency (subG1) in view of Peptide SEQ C1” value was “at least fourfold”.
In the case of “k-s-q-t-v-k-k-w-m-v-v-y-f-r-k [SEQID No 29]”, the “apoptosis efficiency … in words” value was “slight improvement over peptides SEQID NO 27 and SEQID NO 37” (50 μM); “higher efficiency at 100 μM in view of Peptides SEQID NO 27, SEQID NO 37 and SEQID NO 36” (100 μM).
For the substance “s-q-t-v-q-k-w-m-v-v-y-f-r-k [SEQID No 37]”, where the note is “200 μM”, the “apoptosis efficiency … in words” value is “clear improvement over peptides SEQID NO 27 and SEQID NO 29”.
